Reference: patent publication US10730858B2, “Lactam, cyclic urea and carbamate, and triazolone derivatives as potent and selective rock inhibitors” (BRISTOL-MYERS SQUIBB COMPANY, priority 2016, dated 2020)

Target: ROCK2 (Homo sapiens, UniProt O75116)
Assay: ROCK2 assay (Caliper LABCHIP peptide phosphorylation, kinase inhibition)
Assay type: biochemical
Details: 5 μM ATP, 1.5 μM peptide substrate
Procedure: The effectiveness of compounds of the present invention as ROCK inhibitors can be determined in a 30 μL assay containing 20 mM HEPES, pH 7.5, 20 mM MgCl2, 0.015% Brij-35, 4 mM DTT, 5 μM ATP and 1.5 μM peptide substrate (FITC-AHA-AKRRRLSSLRA-OH) (SEQ ID NO. 1). Compounds were dissolved in DMSO so that the final concentration of DMSO was <2%, and the reaction was initiated with Rho kinase variants. After incubation, the reaction was terminated by the addition of EDTA and the phosphorylated and non-phosphorylated peptides separated using a LABCHIP® 3000 Reader (Caliper Life Sciences). […] Compounds were tested in dose-response format, and the inhibition of kinase activity was calculated at each concentration of compound. The inhibition data were fit using a curve-fitting program to determine the IC50; i.e., the concentration of compound required to inhibit 50% of kinase activity.
Representative Examples were tested in the ROCK2 assay described above and found having ROCK2 inhibitory activity. The ranges of the ROCK2 IC50 values are as follows: ROCK2 IC50: ++++ (<10 nM) +++ (10-100 nM) ++ (100-500 nM) + (500-2000 nM)

Sequence of ROCK2 (O75116 whole entry, species assumed): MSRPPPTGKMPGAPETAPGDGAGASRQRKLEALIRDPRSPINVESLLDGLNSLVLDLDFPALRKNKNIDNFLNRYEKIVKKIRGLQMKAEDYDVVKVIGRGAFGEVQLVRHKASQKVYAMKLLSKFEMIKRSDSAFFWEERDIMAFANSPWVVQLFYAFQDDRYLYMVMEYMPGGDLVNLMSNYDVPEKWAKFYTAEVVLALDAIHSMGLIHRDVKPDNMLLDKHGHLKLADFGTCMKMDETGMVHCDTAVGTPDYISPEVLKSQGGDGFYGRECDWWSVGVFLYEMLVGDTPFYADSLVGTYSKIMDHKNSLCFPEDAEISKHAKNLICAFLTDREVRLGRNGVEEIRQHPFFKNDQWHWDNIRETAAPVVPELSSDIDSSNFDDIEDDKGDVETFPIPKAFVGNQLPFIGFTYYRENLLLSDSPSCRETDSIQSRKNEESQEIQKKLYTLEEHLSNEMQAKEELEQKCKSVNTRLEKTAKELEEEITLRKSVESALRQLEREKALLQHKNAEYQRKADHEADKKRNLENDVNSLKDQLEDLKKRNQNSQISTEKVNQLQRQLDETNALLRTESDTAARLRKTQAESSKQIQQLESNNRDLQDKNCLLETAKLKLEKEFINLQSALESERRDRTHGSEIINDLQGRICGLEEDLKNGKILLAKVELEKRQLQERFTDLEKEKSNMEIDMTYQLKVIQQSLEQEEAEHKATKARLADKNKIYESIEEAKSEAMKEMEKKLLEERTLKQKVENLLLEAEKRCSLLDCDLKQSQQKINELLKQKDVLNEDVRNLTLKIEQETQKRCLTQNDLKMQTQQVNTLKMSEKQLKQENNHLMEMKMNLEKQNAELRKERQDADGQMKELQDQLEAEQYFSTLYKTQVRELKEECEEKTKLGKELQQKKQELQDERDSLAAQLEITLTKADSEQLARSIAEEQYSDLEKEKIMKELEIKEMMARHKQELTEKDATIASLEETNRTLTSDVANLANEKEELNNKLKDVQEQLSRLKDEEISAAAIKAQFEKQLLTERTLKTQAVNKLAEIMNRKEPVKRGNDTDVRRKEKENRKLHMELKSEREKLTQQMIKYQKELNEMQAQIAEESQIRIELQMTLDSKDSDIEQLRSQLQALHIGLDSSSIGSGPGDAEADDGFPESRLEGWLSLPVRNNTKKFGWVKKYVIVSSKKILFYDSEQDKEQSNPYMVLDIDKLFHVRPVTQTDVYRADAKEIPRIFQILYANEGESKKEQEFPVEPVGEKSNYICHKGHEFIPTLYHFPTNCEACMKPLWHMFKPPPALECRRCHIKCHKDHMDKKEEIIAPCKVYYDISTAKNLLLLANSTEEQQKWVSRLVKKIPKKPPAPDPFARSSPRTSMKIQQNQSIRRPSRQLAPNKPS

## O=C1C(Nc2cccc(OC(F)F)c2)CCN1c1ccc(-c2n[nH]c(=O)c3ccccc23)cc1 (racemic) [Example 30, 4-[4-(3-{[3-(difluoromethoxy)phenyl]amino}-2-oxopyrrolidin-1-yl)phenyl]-1,2-dihydrophthalazin-1-one]
  IC50: < 10 nM

## O=C1C(Nc2cccc(OC(F)F)c2)CCN1c1ccc(-c2c[nH]c(=O)c3ccccc23)cc1 (racemic) [Example 58, 4-[4-(3-{[3-(difluoromethoxy)phenyl]amino}-2-oxopyrrolidin-1-yl)phenyl]-1,2-dihydroisoquinolin-1-one]
  IC50: < 10 nM

## O=C1COc2cc(NC3CCN(c4ccc(-c5n[nH]c(=O)c6ccccc56)cc4)C3=O)ccc2N1 (racemic) [Example 62, 7-({2-oxo-1-[4-(4-oxo-3,4-dihydrophthalazin-1-yl)phenyl]pyrrolidin-3-yl}amino)-3,4-dihydro-2H-1,4-benzoxazin-3-one]
  IC50: < 10 nM

## Cc1nc2ccc(NC3CCN(c4ccc(-c5n[nH]c(=O)c6ccccc56)cc4)C3=O)cc2s1 (racemic) [Example 66, 4-(4-{3-[(2-methyl-1,3-benzothiazol-6-yl)amino]-2-oxopyrrolidin-1-yl}phenyl)-1,2-dihydrophthalazin-1-one]
  IC50: < 10 nM

## O=C1C(Oc2cccc(OC(F)(F)F)c2)CCN1c1ccc(-c2n[nH]c(=O)c3ccccc23)cc1 (racemic) [Example 73, 4-(4-{2-oxo-3-[3-(trifluoromethoxy)phenoxy]pyrrolidin-1-yl}phenyl)-1,2-dihydrophthalazin-1-one]
  IC50: < 10 nM

## O=C1C(Nc2cccc(OC(F)F)c2)CCN1c1ccc(-c2n[nH]c(=O)c3ccccc23)cc1 (single isomer, unassigned) [Example 55, 4-[4-(3-{[3-(difluoromethoxy)phenyl]amino}-2-oxopyrrolidin-1-yl)phenyl]-1,2-dihydrophthalazin-1-one]
  IC50: 10 to 100 nM

## O=C1C(Nc2cccc(OC(F)F)c2)CCN1c1ccc(-c2n[nH]c(=O)c3ccccc23)cc1 (single isomer, unassigned) [Example 56, 4-[4-(3-{[3-(difluoromethoxy)phenyl]amino}-2-oxopyrrolidin-1-yl)phenyl]-1,2-dihydrophthalazin-1-one]
  IC50: < 10 nM

## O=C1C(Nc2ccc3c(c2)OCCCO3)CCN1c1ccc(-c2n[nH]c(=O)c3ccccc23)cc1 (single isomer, unassigned) [Example 76, 4-(4-{3-[(3,4-dihydro-2H-1,5-benzodioxepin-7-yl)amino]-2-oxopyrrolidin-1-yl}phenyl)-1,2-dihydrophthalazin-1-one]
  IC50: 10 to 100 nM

## O=C1C(Nc2ccc3c(c2)OCCCO3)CCN1c1ccc(-c2n[nH]c(=O)c3ccccc23)cc1 (single isomer, unassigned) [Example 77, 4-(4-{3-[(3,4-dihydro-2H-1,5-benzodioxepin-7-yl)amino]-2-oxopyrrolidin-1-yl}phenyl)-1,2-dihydrophthalazin-1-one]
  IC50: 10 to 100 nM

## O=C1C(Nc2cccc(OC(F)F)c2)CCN1c1ccc(-c2c[nH]c(=O)c3ccccc23)cc1 (single isomer, unassigned) [Example 78, 4-[4-(3-{[3-(difluoromethoxy)phenyl]amino}-2-oxopyrrolidin-1-yl)phenyl]-1,2-dihydroisoquinolin-1-one]
  IC50: 10 to 100 nM

## O=C1C(Nc2cccc(OC(F)F)c2)CCN1c1ccc(-c2c[nH]c(=O)c3ccccc23)cc1 (single isomer, unassigned) [Example 79, 4-[4-(3-{[3-(difluoromethoxy)phenyl]amino}-2-oxopyrrolidin-1-yl)phenyl]-1,2-dihydroisoquinolin-1-one]
  IC50: < 10 nM

## Cc1nc2ccc(NC3CCN(c4ccc(-c5n[nH]c(=O)c6ccccc56)cc4)C3=O)cc2s1 (single isomer, unassigned) [Example 80, 4-(4-{3-[(2-methyl-1,3-benzothiazol-6-yl)amino]-2-oxopyrrolidin-1-yl}phenyl)-1,2-dihydrophthalazin-1-one]
  IC50: < 10 nM

## Cc1nc2ccc(NC3CCN(c4ccc(-c5n[nH]c(=O)c6ccccc56)cc4)C3=O)cc2s1 (single isomer, unassigned) [Example 81, 4-(4-{3-[(2-methyl-1,3-benzothiazol-6-yl)amino]-2-oxopyrrolidin-1-yl}phenyl)-1,2-dihydrophthalazin-1-one]
  IC50: 10 to 100 nM

## O=C1COc2cc(NC3CCN(c4ccc(-c5n[nH]c(=O)c6ccccc56)cc4)C3=O)ccc2N1 (single isomer, unassigned) [Example 82, 7-({2-oxo-1-[4-(4-oxo-3,4-dihydrophthalazin-1-yl)phenyl]pyrrolidin-3-yl}amino)-3,4-dihydro-2H-1,4-benzoxazin-3-one]
  IC50: < 10 nM

## O=C1COc2cc(NC3CCN(c4ccc(-c5n[nH]c(=O)c6ccccc56)cc4)C3=O)ccc2N1 (single isomer, unassigned) [Example 83, 7-({2-oxo-1-[4-(4-oxo-3,4-dihydrophthalazin-1-yl)phenyl]pyrrolidin-3-yl}amino)-3,4-dihydro-2H-1,4-benzoxazin-3-one]
  IC50: 10 to 100 nM

## O=C1C(Oc2cccc(OC(F)(F)F)c2)CCN1c1ccc(-c2n[nH]c(=O)c3ccccc23)cc1 (single isomer, unassigned) [Example 84, 4-(4-{2-oxo-3-[3-(trifluoromethoxy)phenoxy]pyrrolidin-1-yl}phenyl)-1,2-dihydrophthalazin-1-one]
  IC50: < 10 nM

## O=C1C(Oc2cccc(OC(F)(F)F)c2)CCN1c1ccc(-c2n[nH]c(=O)c3ccccc23)cc1 (single isomer, unassigned) [Example 85, 4-(4-{2-oxo-3-[3-(trifluoromethoxy)phenoxy]pyrrolidin-1-yl}phenyl)-1,2-dihydrophthalazin-1-one]
  IC50: < 10 nM

## O=C1C(c2ccccc2)CCN1c1ccc(-c2n[nH]c(=O)c3ccccc23)cc1 (stereo not drawn) [Example 1, 4-[4-(2-oxo-3-phenylpyrrolidin-1-yl)phenyl]-1,2-dihydrophthalazin-1-one]
  IC50: 100 to 500 nM

## O=C1N(c2ccccc2)CCN1c1ccc(-c2n[nH]c(=O)c3ccccc23)cc1 [Example 2, 4-[4-(2-oxo-3-phenylimidazolidin-1-yl)phenyl]-1,2-dihydrophthalazin-1-one]
  IC50: < 10 nM

## O=C1C(C(=O)N2CCc3ccccc32)CCN1c1ccc(-c2n[nH]c(=O)c3ccccc23)cc1 (stereo not drawn) [Example 3, 4-{4-[3-(2,3-dihydro-1H-indole-1-carbonyl)-2-oxopyrrolidin-1-yl]phenyl}-1,2-dihydrophthalazin-1-one]
  IC50: 500 to 2000 nM

## O=C1CC(c2ccccc2)CN1c1ccc(-c2n[nH]c(=O)c3ccccc23)cc1 (stereo not drawn) [Example 4, 4-[4-(2-oxo-4-phenylpyrrolidin-1-yl)phenyl]-1,2-dihydrophthalazin-1-one]
  IC50: 100 to 500 nM

## O=C(C1CCN(c2ccc(-c3n[nH]c(=O)c4ccccc34)cc2)C1=O)N1Cc2ccccc2C1 (stereo not drawn) [Example 5, 4{-4-[3-(2,3-dihydro-1H-isoindole-2-carbonyl)-2-oxopyrrolidin-1-yl]phenyl}-1,2-dihydrophthalazin-1-one]
  IC50: 500 to 2000 nM

## O=C(Nc1ccccc1)C1CCN(c2ccc(-c3n[nH]c(=O)c4ccccc34)cc2)C1=O (stereo not drawn) [Example 6, 2-oxo-1-[4-(4-oxo-3,4-dihydrophthalazin-1-yl)phenyl]-N-phenylpyrrolidine-3-carboxamide]
  IC50: 100 to 500 nM

## O=C(NCc1ccccc1)C1CCN(c2ccc(-c3n[nH]c(=O)c4ccccc34)cc2)C1=O (stereo not drawn) [Example 7, N-benzyl-2-oxo-1-[4-(4-oxo-3,4-dihydrophthalazin-1-yl)phenyl]pyrrolidine-3-carboxamide]
  IC50: 100 to 500 nM
